In patent publication US8557800B2, “Sphingosine kinase inhibitors” (Apogee Biotechnology Corporation, priority 2005, dated 2013):

Legend:
[1] = tested on: recombinant human SK; test: Inhibition of recombinant human SK, LC/MS/MS assay; format: biochemical; conditions: 6 μg/ml compound
Method in brief: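 Enzyme incubated with unlabeled sphingosine and ATP (1 mM, as in the radiometric format) for 30 min, then stopped and extracted with acetonitrile. S1P quantified by C8 reverse-phase HPLC–MS/MS against C17 sphingosine and C17 S1P internal standards using calibration curves.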

[2] = tested on: MCF-10A non-transformed human breast epithelial cells; test: Cytotoxicity, SRB binding assay; format: cell-based; conditions: inhibition of cell proliferation, 48 h, read-out: MCF-10A IC50
Method in brief: (§1)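 Cells exposed to varying compound doses for 48 h, then survival measured by sulforhodamine B staining. IC50 is the concentration giving 50% proliferation inhibition, in μM, as mean±sd of replicate trials.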

[3] = tested on: MCF-7 human breast adenocarcinoma cells; test: Cytotoxicity, SRB binding assay; format: cell-based; conditions: MCF7, inhibition of cell proliferation, 48 h, read-out: MCF-7 IC50
Method in brief: as §1

[4] = tested on: endogenous SK in MDA-MB-231 human breast carcinoma cells; test: Intact cell SK assay, conversion of [3H]sphingosine to [3H]S1P; format: cell-based; conditions: MDA-MB-231 cells, 20 μg/ml compound
Text: The cells take up the exogenous [^3H]sphingosine and convert it to [^3H]S1P through the action of endogenous SK. The resulting [^3H]S1P is isolated via charge-based separation as indicated above. […] For potency studies, MDA-MB-231 cells were exposure to varying concentrations of a test Compound and then assayed for conversion of [^3H]sphingosine to [^3H]S1P.

[5] = tested on: mouse JC mammary adenocarcimona cell line growing subcutaneously in Balb/c mice; conditions: JC tumor model, intraperitoneal (ip) or oral (po) administration
Procedure: The antitumor activity of the representative SK inhibitors were evaluated using a syngeneic tumor model that uses the mouse JC mammary adenocarcimona cell line growing subcutaneously in immunocompetent Balb/c mice (Lee et al., 2003, Oncol Res 14: 49).
In FIG. 1, Balb/c mice, 6-8 weeks old, were injected subcutaneously with 10^6 JC cells suspended in phosphate-buffered saline. The SK inhibitors Compounds 62 and 57 were dissolved in PEG400 and administered to mice every-other day at a dose of 100 mg/kg. Body weights and tumor volumes were monitored daily. In FIG. 1, tumor growth is expressed as the tumor volume relative to day 1 for each animal.

[6] = tested on: mice, multiple cycles of DSS-induced inflammation; test: Chronic DSS-colitis model (35-day); format: in vivo, mouse
Procedure: FIG. 13. Effects of Compound 62 on the DAI in the chronic DSS-colitis model. Mice received 2 cycles (7 days per cycle) of DSS (1.5% cycle 1 and 1% cycle 2), 2 cycles of normal drinking water and were randomized by DAI on Day 28 into groups of 8 mice. The mice were then treated as follows: No DSS (▪)—normal drinking water and orally dosed with PEG400 every day for 7 days (water control); DSS alone (▴)—drinking water containing 1.5% DSS and orally dosed with PEG daily for 7 days; DSS+Compound 62 (▾)—drinking water containing 1.5% DSS and orally dosed with Compound 62 (50 mg/kg) every day for 7 days; DSS+Dipentum (♦)—drinking water containing 1.5% DSS and orally dosed with Dipentum (50 mg/kg). *p<0.001 versus No DSS group.
A 35-day model of IBD was used to evaluate the effectiveness of the SK inhibitors in mice that experience multiple cycles of DSS-induced inflammation. This chronic model is similar to the acute model, except that the DSS concentration in the drinking water is lower and animals receive periodic exposure to DSS (DSS on days 1-7, water on Days 8-13, DSS on day 14-21, water on Days 22-27 and then DSS until the completion of the study on Day 35). In these experiments, treatment of the mice with an SK inhibitor or Dipentum began on Day 28 and continued daily until the completion of the study. The DAI index was monitored every other day until Day 28 and then daily until Day 35. Animals were sacrificed on Day 35, and changes in the colon length and cytokine profiles were measured.

[7] = tested on: C57BL/6 mice, DSS model of IBD; test: Acute DSS-colitis model; format: in vivo, mouse; conditions: 2% DSS, 50 mg/kg oral daily
Procedure: We have conducted experiments with SK inhibitors using the dextran sulfate sodium (DSS) model of IBD. In these experiments, male C57BL/6 mice were provided with standard rodent diet and water ad libitum. After their acclimation, the animals were randomly divided into groups of 5 or 6 for DSS (40,000 MW from ICN Biomedicals, Inc., Aurora, Ohio)—and drug-treatment. The SK inhibitors were dissolved in PEG400, and given once daily by oral gavage in a volume of 0.1 mL per dose. Dipentum, an FDA-approved anti-colitis drug whose active ingredient, olsalazine, is converted to 5-aminosalicylic acid in vivo, was used as a positive control. The mice were given normal drinking water or 2% DSS and treated orally with an SK inhibitor or Dipentum at a dose of 50 mk/kg daily. The body weight of each animal was measured each day, and the Disease Activity Index (DAI) was scored for each animal on Days 4-6. On Day 6, the animals were sacrificed by cervical dislocation and the entire colon was removed and measured to the nearest 0.1 cm. Portions of the colons were then fixed, sectioned and their histologies were assessed on a blinded basis to determine their Histology Score. Other portions of the colons were used for biochemical analyses of inflammation markers.

| SMILES | Recombinant SK (% inhibition) [1] | IC50 [2] | IC50 [3] | also measured |
| --- | --- | --- | --- | --- |
| O=C(NCc1ccc(O)c(O)c1)C12CC3CC(C1)CC(c1ccc(Cl)cc1)(C3)C2 [Compound 36, 3-(4-Chloro-phenyl)-adamantane-1-carboxylic acid 3,4-dihydroxy-benzylamide] | 37% | 9 µM | 13 µM | Cellular S1P (% inhibition) [4]: 72% |
| COc1ccc(CCNC(=O)C23CC4CC(C2)CC(c2ccc(Cl)cc2)(C4)C3)cc1 [Compound 41, 3-(4-Chloro-phenyl)-adamantane-1-carboxylic acid [2-(4-methoxy-phenyl)-ethyl]-amide] | 67% | 71 µM | 6 µM | Cellular S1P (% inhibition) [4]: 23% |
| O=C(NCCc1ccc(O)c(O)c1)C12CC3CC(C1)CC(c1ccc(Cl)cc1)(C3)C2 [Compound 44, 3-(4-Chloro-phenyl)-adamantane-1-carboxylic acid [2-(3,4-dihydroxy-phenyl)-ethyl]-amide] |  | 9 µM | 6 µM | In vivo activity [5]: active - ip |
| CN1CCC(NC(=O)C23CC4CC(C2)CC(c2ccc(Cl)cc2)(C4)C3)CC1 [Compound 51, 3-(4-Chloro-phenyl)-adamantane-1-carboxylic acid (1-methyl-piperidin-4-yl)-amide] | 84% | 25 µM | 8 µM | In vivo activity [5]: active - ip and po |
| O=C(NCCc1ccncc1)C12CC3CC(CC(C3)C1)C2 [Compound 63, Adamantane-1-carboxylic acid (2-pyridin-4-yl-ethyl)-amide] | 0% |  | 11 µM | Cellular S1P (% inhibition) [4]: 39% |
| O=C(Nc1nc(-c2ccc(Cl)cc2)cs1)C12CC3CC(C1)CC(c1ccc(Cl)cc1)(C3)C2 [Compound 70, 3-(4-Chloro-phenyl)-adamantane-1-carboxylic acid [4-(4-chloro-phenyl)-thiazol-2-yl]-amide] | 33% | 103 µM | 7 µM |  |
| O=C(Nc1nc2ccccc2s1)C12CC3CC(C1)CC(c1ccc(Cl)cc1)(C3)C2 [Compound 71, 3-(4-Chloro-phenyl)-adamantane-1-carboxylic acid benzothiazol-2-ylamide] | 27% | 118 µM | 21 µM |  |
| O=C(Nc1nc2cc(Cl)ccc2o1)C12CC3CC(C1)CC(c1ccc(Cl)cc1)(C3)C2 [Compound 72, 3-(4-Chloro-phenyl)-adamantane-1-carboxylic acid (5-chloro-benzooxazol-2-yl)-amide] | 14% | 6 µM | 2 µM |  |
| Oc1ccc(NCC23CC4CC(C2)CC(c2ccc(Cl)cc2)(C4)C3)cc1 [Compound 76, 4-{[3-(4-Chloro-phenyl)-adamantan-1-ylmethyl]-amino}-phenol] | 42% |  | 5 µM | melting point: 138 to 140 °C |
| Clc1ccc(C23CC4CC(CC(CNCCN5CCOCC5)(C4)C2)C3)cc1 [Compound 87, [3-(4-Chloro-phenyl)-adamantan-1-ylmethyl]-(2-morpholin-4-yl-ethyl)-amine] | 75% | 33 µM | 38 µM |  |
| CCn1c2ccccc2c2cc(NCC34CC5CC(C3)CC(c3ccc(Cl)cc3)(C5)C4)ccc21 [Compound 89, [3-(4-Chloro-phenyl)-adamantan-1-ylmethyl]-(9-ethyl-9H-carbazol-3-yl)-amine] | 37% | 41 µM | 74 µM | Cellular S1P (% inhibition) [4]: 1% |
| Clc1ccc(-c2cnc(NCC34CC5CC(C3)CC(c3ccc(Cl)cc3)(C5)C4)s2)cc1 [Compound 90, [3-(4-Chloro-phenyl)-adamantan-1-ylmethyl]-[5-(4-chloro-phenyl)-thiazol-2-yl]-amine] | 26% | 107 µM | 96 µM |  |
| CC(NC1CCN(C)CC1)C12CC3CC(CC(c4ccc(Cl)cc4)(C3)C1)C2 (stereo not drawn) [Compound 107, {1-[3-(4-Chloro-phenyl)-adamantan-1-yl]-ethyl}-(1-methyl-piperidin-4-yl)-amine] |  | 1 µM | 1 µM | In vivo activity [5]: active - ip |
| CCn1c2ccccc2c2cc(NC(C)C34CC5CC(CC(c6ccc(Cl)cc6)(C5)C3)C4)ccc21 (stereo not drawn) [Compound 114, {1-[3-(4-Chloro-phenyl)-adamantan-1-yl]-ethyl}-(9-ethyl-9H-carbazol-3-yl)-amine] | 33% | 9 µM | 55 µM |  |
| O=C(/C=C/c1ccc(O)cc1)C12CC3CC(C1)CC(c1ccc(Cl)cc1)(C3)C2 [Compound 132, 1-[3-(4-Chloro-phenyl)-adamantan-1-yl]-3-(4-hydroxy-phenyl)-propenone] | 8% |  | 17 µM | melting point: 87 to 89 °C |
| O=C(/C=C/c1ccc2ccccc2c1)C12CC3CC(C1)CC(c1ccc(Cl)cc1)(C3)C2 [Compound 133, 1-[3-(4-Chloro-phenyl)-adamantan-1-yl]-3-naphthalen-2-yl-propenone] | 36% |  | 13 µM | melting point: 82 to 84 °C |
| CCn1c2ccccc2c2cc(/C=C/C(=O)C34CC5CC(C3)CC(c3ccc(Cl)cc3)(C5)C4)ccc21 [Compound 136, 1-[3-(4-Chloro-phenyl)-adamantan-1-yl]-3-(9-ethyl-9H-carbazol-3-yl)-propenone] |  |  | 8 µM | melting point: 138 to 140 °C |
| O=C(O)c1cc(/N=N/c2ccc(O)c(C(=O)O)c2)ccc1O [Dipentum, olsalazine, reference compound] |  |  |  | colon length ([6]; 50 mg/kg oral daily Day 28-35, DSS alone 4.9±0.2, water 7.8±0.3): 6.1±0.2 cm; increase in DAI ([6]; 50 mg/kg oral daily from Day 28 to Day 35, third DSS exposure): significantly suppressed; serum level of IL-6 ([6]; at sacrifice, Day 35): reduced; colon levels of pro-inflammatory cytokines TNFα, IL-1β, IFN-γ and IL-6 ([6]; treated during the final DSS cycle): equivalent to the DSS-alone group; elevations of colon pro-inflammatory proteins IFN-γ, IL-1β, IL-6 and TNFα [7]: attenuated; increase in colon myeloperoxidase (MPO) activity [7]: markedly attenuated; Histology Score vs DSS-alone animals ([7]; Day 6): consistently lower; colon length ([7]; Day 6): intermediate length; Disease Activity Index (intensity of IBD manifestations) ([7]; Days 4-6): reduced |
